Laboratory results: patent US9156829B2, “Cycloalkyl and heterocycloalkyl compounds as orexin receptor antagonists” (Takeda Pharmaceutical Company Limited, priority 2014, dated 2015)

How the values were obtained:
[1] = molecular target: human orexin receptor 1 (Homo sapiens (Human), UniProt O43613); assay: Orexin antagonist activity, intracellular calcium FLIPR assay, RBL-2H3 cells expressing human orexin receptor 1; format: cell-based; conditions: RBL-2H3 cells stably expressing human orexin receptor 1; orexin-A at approx. 80% maximal response; compound added 15 minutes before; read-out: Human Orexin1R IC50
human orexin receptor 1, sequence (O43613 whole entry): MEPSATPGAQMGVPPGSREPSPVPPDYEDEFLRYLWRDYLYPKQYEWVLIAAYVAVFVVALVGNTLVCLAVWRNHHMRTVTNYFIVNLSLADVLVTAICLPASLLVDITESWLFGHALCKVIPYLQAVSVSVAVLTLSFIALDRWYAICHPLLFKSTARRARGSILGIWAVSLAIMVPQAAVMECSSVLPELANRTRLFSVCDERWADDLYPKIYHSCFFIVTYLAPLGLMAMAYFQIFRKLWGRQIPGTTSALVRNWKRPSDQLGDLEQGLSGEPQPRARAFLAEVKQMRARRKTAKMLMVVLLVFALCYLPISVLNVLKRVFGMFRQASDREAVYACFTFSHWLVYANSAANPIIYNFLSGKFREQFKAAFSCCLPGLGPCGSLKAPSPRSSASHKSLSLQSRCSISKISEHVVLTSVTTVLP

[2] = molecular target: human orexin receptor 2 (Homo sapiens (Human), UniProt O43614); assay: Orexin antagonist activity, intracellular calcium FLIPR assay, RBL-2H3 cells expressing human orexin receptor 2; format: cell-based; conditions: RBL-2H3 cells stably expressing human orexin receptor 2; orexin-A at approx. 80% maximal response; compound added 15 minutes before; read-out: Human Orexin2R IC50
human orexin receptor 2, sequence (O43614 whole entry): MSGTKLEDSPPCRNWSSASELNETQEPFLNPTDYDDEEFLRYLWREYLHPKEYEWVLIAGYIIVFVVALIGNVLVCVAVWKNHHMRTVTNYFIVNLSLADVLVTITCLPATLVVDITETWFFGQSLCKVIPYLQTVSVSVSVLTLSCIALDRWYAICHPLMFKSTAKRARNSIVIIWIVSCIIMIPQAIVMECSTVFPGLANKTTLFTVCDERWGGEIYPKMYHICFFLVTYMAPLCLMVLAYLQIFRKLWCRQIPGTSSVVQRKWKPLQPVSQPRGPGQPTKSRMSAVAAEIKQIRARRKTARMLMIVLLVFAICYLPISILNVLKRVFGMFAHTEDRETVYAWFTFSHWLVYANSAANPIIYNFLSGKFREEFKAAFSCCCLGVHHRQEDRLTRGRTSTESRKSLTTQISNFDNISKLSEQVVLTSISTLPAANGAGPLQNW

Row | Compound | IC50 [1] [nM] | IC50 [2] [nM]
1 | CC(C)c1nc(C(F)(F)F)cnc1N[C@H]1CCC[C@@H]1NC(=O)c1ccccc1-n1nccn1 [Example 110, N-[(1S,2S)-2-{[3-(Propan-2-yl)-5-(trifluoromethyl)pyrazin-2-yl]amino}cyclopentyl]-2-(2H-1,2,3-triazol-2-yl)benzamide] | 43 | 3550
2 | O=C(N[C@H]1CCC[C@@H]1Nc1cnc(C2CC2)cn1)c1ccccc1-n1nccn1 [Example 112, N-[(1S,2S)-2-[(5-Cyclopropylpyrazin-2-yl)amino]cyclopentyl]-2-(2H-1,2,3-triazol-2-yl)benzamide] | 476 | > 10000
3 | CC(C)c1cnc(N[C@H]2CCC[C@@H]2NC(=O)c2ccccc2-n2nccn2)cn1 [Example 113, N-[(1S,2S)-2-{[5-(Propan-2-yl)pyrazin-2-yl]amino}cyclopentyl]-2-(2H-1,2,3-triazol-2-yl)benzamide] | 67 | > 10000
4 | CCc1cnc(N[C@H]2CCC[C@@H]2NC(=O)c2ccccc2-n2nccn2)cn1 [Example 114, N-[(1S,2S)-2-[(5-Ethylpyrazin-2-yl)amino]cyclopentyl]-2-(2H-1,2,3-triazol-2-yl)benzamide] | 997 | > 10000
5 | O=C(N[C@H]1CCC[C@@H]1Nc1ccc(OC(F)(F)F)cn1)c1ccccc1-n1nccn1 [Example 115, 2-(2H-1,2,3-Triazol-2-yl)-N-[(1S,2S)-2-{[5-(trifluoromethoxy)pyridin-2-yl]amino}cyclopentyl]benzamide] | 175 | > 10000
6 | COc1cc(Br)cnc1N[C@H]1CCC[C@@H]1NC(=O)c1ccccc1-n1nccn1 [Example 119, N-[(1S,2S)-2-[(5-Bromo-3-methoxypyridin-2-yl)amino]cyclopentyl]-2-(2H-1,2,3-triazol-2-yl)benzamide] | 22 | 7800
7 | O=C(N[C@H]1CCC[C@@H]1Nc1cc(C(F)(F)F)ccn1)c1ccccc1-n1nccn1 [Example 121, 2-(2H-1,2,3-Triazol-2-yl)-N-[(1S,2S)-2-{[4-(trifluoromethyl)pyridin-2-yl]amino}cyclopentyl]benzamide] | 822 | > 10000
8 | O=C(N[C@H]1CCC[C@@H]1Nc1ncc(C(F)(F)F)cc1Cl)c1ncccc1-n1nccn1 [Example 122, N-[(1S,2S)-2-{[3-Chloro-5-(trifluoromethyl)pyridin-2-yl]amino}cyclopentyl]-3-(2H-1,2,3-triazol-2-yl)pyridine-2-carboxamide] | 32 | > 10000
9 | O=C(N[C@H]1CCC[C@@H]1Nc1ncc(C(F)(F)F)cc1F)c1ncccc1-n1nccn1 [Example 123, N-[(1S,2S)-2-{[3-Fluoro-5-(trifluoromethyl)pyridin-2-yl]amino}cyclopentyl]-3-(2H-1,2,3-triazol-2-yl)pyridine-2-carboxamide] | 18 | > 10000

The remaining compounds from weak to strong by IC50 [1], led by results:

Row | IC50 [1] [nM] | IC50 [2] [nM] | Compound
10 | 368 | > 10000 | O=C(N[C@H]1CCC[C@@H]1Nc1ccc(Br)cn1)c1ccccc1-n1nccn1 [Example 118, N-[(1S,2S)-2-[(5-Bromopyridin-2-yl)amino]cyclopentyl]-2-(2H-1,2,3-triazol-2-yl)benzamide]
11 | 34 | > 10000 | CCc1nc(C(F)(F)F)cnc1N[C@H]1CCC[C@@H]1NC(=O)c1ccccc1-n1nccn1 [Example 111, N-[(1S,2S)-2-{[3-Ethyl-5-(trifluoromethyl)pyrazin-2-yl]amino}cyclopentyl]-2-(2H-1,2,3-triazol-2-yl)benzamide]
12 | 24 | > 10000 | Cc1cc(C(F)(F)F)cnc1N[C@H]1CCC[C@@H]1NC(=O)c1ccccc1-n1nccn1 [Example 108, N-[(1S,2S)-2-{[3-Methyl-5-(trifluoromethyl)pyridin-2-yl]amino}cyclopentyl]-2-(2H-1,2,3-triazol-2-yl)benzamide]
13 | 21 | > 10000 | O=C(N[C@H]1CCC[C@@H]1Nc1ncc(C(F)(F)F)nc1C1CC1)c1ccccc1-n1nccn1 [Example 109, N-[(1S,2S)-2-{[3-Cyclopropyl-5-(trifluoromethyl)pyrazin-2-yl]amino}cyclopentyl]-2-(2H-1,2,3-triazol-2-yl)benzamide]
